Laboratory results as given in patent publication US9617258B2, “Pyrrolo[2,3-d]pyrimidinyl, pyrrolo[2,3-b]pyrazinyl and pyrrolo[2,3-d]pyridinyl acrylamides” (Pfizer Inc., priority 2013, dated 2017).

Experiment: Stability of JAK3 covalent inhibitors in human whole blood;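 further: parent compound remaining over incubation time quantified by LC-MS/MS as peak area ratio against an internal standard, using pooled K2-EDTA blood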
Type: in vitro ADME
Settings: both sexes, whole blood, 37° C., read-out: Human blood stability t1/2
Source text: Stability of JAK3 Covalent Inhibitors in Rat and Human Whole Blood
Rat blood was collected from 3 male Sprague-Dawley rats (200-250 g, Charles River Laboratories) and pooled for each study. Human blood was collected from one male and one female healthy subjects at the Occupational Health & Wellness Center at Pfizer, Groton, CT and pooled for each study. Both rat and human blood was collected freshly into K2-EDTA tubes and kept on ice. An aliquot of the blood was transferred to microtubes and pre-warmed for 10 min at 37° C. using a heat block. […] An aliquot of the incubation mixture was removed at designated time points during the course of the incubation, mixed with an aliquot of acetonitrile containing an internal standard, vortexed and centrifuged. The resulting supernatants were removed and subjected to LC-MS/MS analyses to determine parent compound concentrations. Peak area ratios of the parent compound vs the internal standard were used to determine the % of parent compound remaining vs incubation time.

half-life at 1 μM	SMILES
> 5.35 h	C=CC(=O)N1CCC[C@H]1CNc1cnc2[nH]cc(C(=O)NC(C)C)c2n1 [Example 177, 2-({[(2S)-1-acryloylpyrrolidin-2-yl]methyl}amino)-N-(propan-2-yl)-5H-pyrrolo[2,3-b]pyrazine-7-carboxamide]
2.38 h	C=CC(=O)N1CC2CCN(c3cnc4[nH]cc(C(=O)NC(C)C)c4n3)C2C1 (centres unmarked) [Example 178, 2-(5-acryloylhexahydropyrrolo[3,4-b]pyrrol-1(2H)-yl)-N-(propan-2-yl)-5H-pyrrolo[2,3-b]pyrazine-7-carboxamide]
> 6 h	C=CC(=O)N[C@H]1C[C@@H](Nc2cnc3[nH]cc(C(=O)NC(C)C)c3n2)C1 [Example 184, 2-{[cis-3-(acryloylamino)cyclobutyl]amino}-N-(propan-2-yl)-5H-pyrrolo[2,3-b]pyrazine-7-carboxamide]
> 6 h	C=CC(=O)N(C)C1CN(c2cnc3[nH]cc(C(=O)NC(C)C)c3n2)C1 [Example 187, 2-{3-[acryloyl(methyl)amino]azetidin-1-yl}-N-(propan-2-yl)-5H-pyrrolo[2,3-b]pyrazine-7-carboxamide]
1.6 h	C=CC(=O)N1CC(Nc2cnc3[nH]cc(C(=O)NC(C)C)c3n2)C1 [Example 188, 2-[(1-acryloylazetidin-3-yl)amino]-N-(propan-2-yl)-5H-pyrrolo[2,3-b]pyrazine-7-carboxamide]
> 6 h	C=CC(=O)N1C[C@@H]2C(Nc3cnc4[nH]cc(C(=O)NC(C)C)c4n3)[C@@H]2C1 (stereo partly drawn) [Example 189, 2-{[(1R,5S,6s)-3-acryloyl-3-azabicyclo[3.1.0]hex-6-yl]amino}-N-(propan-2-yl)-5H-pyrrolo[2,3-b]pyrazine-7-carboxamide]
> 6 h	C=CC(=O)N1CC[C@@H](CNc2cnc3[nH]cc(C(=O)NC(C)C)c3n2)C1 [Example 191, 2-({[(3S)-1-acryloylpyrrolidin-3-yl]methyl}amino)-(N-propan-2-yl)-5H-pyrrolo[2,3-b]pyrazine-7-carboxamide]
> 6 h	C=CC(=O)N1CC[C@@H](Nc2cnc3[nH]cc(C(=O)NC(C)C)c3n2)[C@H](O)C1 [Example 196, 2-{[(3R,4R)-1-acryloyl-3-hydroxypiperidin-4-yl]amino}-N-(propan-2-yl)-5H-pyrrolo[2,3-b]pyrazine-7-carboxamide]
> 6 h	C=CC(=O)N[C@H]1C[C@H](Nc2cnc3[nH]cc(C(=O)NC(C)C)c3n2)C1 [Example 198, 2-{[trans-3-(acryloylamino)cyclobutyl]amino}-N-(propan-2-yl)-5H-pyrrolo[2,3-b]pyrazine-7-carboxamide]
> 6 h	C=CC(=O)N1CCC(Nc2cnc3[nH]cc(-c4ccc(C)nc4)c3n2)CC1 [Example 199, 1-(4-{[7-(6-methylpyridin-3-yl)-5H-pyrrolo[2,3-b]pyrazin-2-yl]amino}piperidin-1-yl)prop-2-en-1-one]
> 6 h	C=CC(=O)N1CCC(Nc2cnc3[nH]cc(-c4ccnc(C)c4)c3n2)CC1 [Example 201, 1-(4-{[7-(2-methylpyridin-4-yl)-5H-pyrrolo[2,3-b]pyrazin-2-yl]amino}piperidin-1-yl)prop-2-en-1-one]
> 6 h	C=CC(=O)N1CCC(Nc2cnc3[nH]cc(-c4ccc(F)nc4)c3n2)CC1 [Example 207, 1-(4-{[7-(6-fluoropyridin-3-yl)-5H-pyrrolo[2,3-b]pyrazin-2-yl]amino}piperidin-1-yl)prop-2-en-1-one]
> 6 h	C=CC(=O)N1CCC(Nc2cnc3[nH]cc(-c4cnc(OC)nc4)c3n2)CC1 [Example 210, 1-(4-{[7-(2-methoxypyrimidin-5-yl)-5H-pyrrolo[2,3-b]pyrazin-2-yl]amino}piperidin-1-yl)prop-2-en-1-one]
> 6 h	C=CC(=O)N1CCC(Oc2cnc3[nH]cc(-c4cnn(C)c4)c3n2)CC1 [Example 218, 1-(4-{[7-(1-methyl-1H-pyrazol-4-yl)-5H-pyrrolo[2,3-b]pyrazin-2-yl]oxy}piperidin-1-yl)prop-2-en-1-one]
> 6 h	C=CC(=O)N1CCC(Oc2cnc3[nH]cc(-c4ccnc(C)c4)c3n2)CC1 [Example 220, 1-(4-{[7-(2-methylpyridin-4-yl)-5H-pyrrolo[2,3-b]pyrazin-2-yl]oxy}piperidin-1-yl)prop-2-en-1-one]
4.93 h	C=CC(=O)N1CCC(Nc2cnc3[nH]cc(C(=O)NC4CCCC4(F)F)c3n2)CC1 (centres unmarked) [Example 234, 2-[(1-acryloylpiperidin-4-yl)amino]-N-(2,2-difluorocyclopentyl)-5H-pyrrolo[2,3-b]pyrazine-7-carboxamide]
4.05 h	C=CC(=O)N1CCC(Nc2cnc3[nH]cc(C(=O)N[C@@H]4CCC[C@H]4F)c3n2)CC1 [Example 237, 2-[(1-acryloylpiperidin-4-yl)amino]-N-[(1R,2R)-2-fluorocyclopentyl]-5H-pyrrolo[2,3-b]pyrazine-7-carboxamide]
4.33 h	C=CC(=O)N1CCC(Nc2cnc3[nH]cc(C(=O)NCC4CC(F)(F)C4)c3n2)CC1 [Example 238, 2-[(1-acryloylpiperidin-4-yl)amino]-N-[(3,3-difluorocyclobutyl)methyl]-5H-pyrrolo[2,3-b]pyrazine-7-carboxamide]

half-life at 1 μM	SMILES
3.92 h	C=CC(=O)N1CCC(Nc2cnc3[nH]cc(C(=O)NCCCC(F)(F)F)c3n2)CC1 [Example 240, 2-[(1-acryloylpiperidin-4-yl)amino]-N-(4,4,4-trifluorobutyl)-5H-pyrrolo[2,3-b]pyrazine-7-carboxamide]
> 5.17 h	C=CC(=O)N1CCC(Nc2cnc3[nH]cc(C(=O)NC[C@H](C)CC(F)(F)F)c3n2)CC1 [Example 241, 2-[(1-acryloylpiperidin-4-yl)amino]-N-[(2R)-4,4,4-trifluoro-2-methylbutyl]-5H-pyrrolo[2,3-b]pyrazine-7-carboxamide]
> 6 h	C=CC(=O)N1CCC(Nc2cnc3[nH]cc(C(=O)NC4CC(F)C4)c3n2)CC1 (centres unmarked) [Example 243, 2-[(1-acryloylpiperidin-4-yl)amino]-N-(3-fluorocyclobutyl)-5H-pyrrolo[2,3-b]pyrazine-7-carboxamide]
4.73 h	C=CC(=O)N1CCC(Nc2cnc3[nH]cc(C(=O)N[C@H]4CC[C@@H](F)C4)c3n2)CC1 [Example 244, 2-[(1-acryloylpiperidin-4-yl)amino]-N-[(1S,3R)-3-fluorocyclopentyl]-5H-pyrrolo[2,3-b]pyrazine-7-carboxamide]
> 6 h	C=CC(=O)N1CCC(Nc2cnc3[nH]cc(C(=O)NCCC(F)(F)F)c3n2)CC1 [Example 246, 2-[(1-acryloylpiperidin-4-yl)amino]-N-(3,3,3-trifluoropropyl)-5H-pyrrolo[2,3-b]pyrazine-7-carboxamide]
4.53 h	C=CC(=O)N1CCC(Nc2cnc3[nH]cc(C(=O)N[C@H]4CC[C@H](F)C4)c3n2)CC1 [Example 247, 2-[(1-acryloylpiperidin-4-yl)amino]-N-[(1S,3S)-3-fluorocyclopentyl]-5H-pyrrolo[2,3-b]pyrazine-7-carboxamide]
3.35 h	C=CC(=O)N1CCC(Nc2cnc3[nH]cc(C(=O)N[C@@H]4CCC[C@@H]4F)c3n2)CC1 [Example 251, 2-[(1-acryloylpiperidin-4-yl)amino]-N-[(1R,2S)-2-fluorocyclopentyl]-5H-pyrrolo[2,3-b]pyrazine-7-carboxamide]
> 6 h	C=CC(=O)N1CCC(Nc2cnc3[nH]cc(C(=O)NCC(C)CC(F)(F)F)c3n2)CC1 (centres unmarked) [Example 253, 2-[(1-acryloylpiperidin-4-yl)amino]-N-(4,4,4-trifluoro-2-methylbutyl)-5H-pyrrolo[2,3-b]pyrazine-7-carboxamide]
3.98 h	C=CC(=O)N1CCC(Nc2cnc3[nH]cc(C(=O)NC4CCCCC4(F)F)c3n2)CC1 (centres unmarked) [Example 256, 2-[(1-acryloylpiperidin-4-yl)amino]-N-(2,2-difluorocyclohexyl)-5H-pyrrolo[2,3-b]pyrazine-7-carboxamide]
> 6 h	C=CC(=O)N1CCC(Nc2cnc3[nH]cc(C(=O)NC4CCC(F)(F)C4)c3n2)CC1 (centres unmarked) [Example 259, 2-[(1-acryloylpiperidin-4-yl)amino]-N-(3,3-difluorocyclopentyl)-5H-pyrrolo[2,3-b]pyrazine-7-carboxamide]
> 6 h	C=CC(=O)N1CCC(Nc2cnc3[nH]cc(C(=O)NCCC#N)c3n2)CC1 [Example 261, 2-[(1-acryloylpiperidin-4-yl)amino]-N-(2-cyanoethyl)-5H-pyrrolo[2,3-b]pyrazine-7-carboxamide]
5.6 h	C=CC(=O)N1CCC(Nc2cnc3[nH]cc(C(=O)NC(C)(C)C)c3n2)CC1 [Example 266, 2-[(1-acryloylpiperidin-4-yl)amino]-N-tert-butyl-5H-pyrrolo[2,3-b]pyrazine-7-carboxamide]
3.73 h	C=CC(=O)N1CCC(Nc2cnc3[nH]cc(C(=O)N[C@@H](C)CCC)c3n2)CC1 [Example 267, 2-[(1-acryloylpiperidin-4-yl)amino]-N-[(2S)-pentan-2-yl]-5H-pyrrolo[2,3-b]pyrazine-7-carboxamide]
4.8 h	C=CC(=O)N1CCC(Nc2cnc3[nH]cc(C(=O)N[C@H](C)COC)c3n2)CC1 [Example 268, 2-[(1-acryloylpiperidin-4-yl)amino]-N-[(2R)-1-methoxypropan-2-yl]-5H-pyrrolo[2,3-b]pyrazine-7-carboxamide]
4.27 h	C=CC(=O)N1CCC(Nc2cnc3[nH]cc(C(=O)NCCCC)c3n2)CC1 [Example 269, 2-[(1-acryloylpiperidin-4-yl)amino]-N-butyl-5H-pyrrolo[2,3-b]pyrazine-7-carboxamide]
3.87 h	C=CC(=O)N1CCC(Nc2cnc3[nH]cc(C(=O)NCC4CCCC4)c3n2)CC1 [Example 270, 2-[(1-acryloylpiperidin-4-yl)amino]-N-(cyclopentylmethyl)-5H-pyrrolo[2,3-b]pyrazine-7-carboxamide]
2.28 h	C=CC(=O)N1CCC(Nc2cnc3[nH]cc(C(=O)NCC(C)(C)C)c3n2)CC1 [Example 271, 2-[(1-acryloylpiperidin-4-yl)amino]-N-(2,2-dimethylpropyl)-5H-pyrrolo[2,3-b]pyrazine-7-carboxamide]
